Reference: ChEMBL document CHEMBL1201862, “PubChem BioAssay data set” (2004)
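Five compound concentrations were applied to cells in 96-well plates for 48 hours; endpoints were derived by simple linear interpolation of the resulting dose-response curve. Abbreviation: GI50, concentration required for 50% inhibition of growth.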 Activity calls are given as the source filed them. Rule as the data show it: active = GI50 up to about 1.1 µM and inactive = higher.

Assays:
Assay in all cases: inhibition of tumour cell growth, NCI panel, 48 h
[1] = test system: 786-0
[2] = test system: RXF 393
[3] = test system: UO-31
[4] = test system: SNB-75
[5] = test system: A549
[6] = test system: LXFL 529
[7] = test system: SN12C
[8] = test system: SF-539
[9] = test system: SR
[10] = test system: COLO 205
[11] = test system: SK-OV-3
[12] = test system: K562
[13] = test system: HOP-92
[14] = test system: SW-620
[15] = test system: UACC-62
[16] = test system: SK-MEL-2
[17] = test system: CAKI-1
[18] = test system: HOP-62

Measured: GI50

COc1ccc(CC#C/C=C/C(=O)NCC(C)C)cc1
inactive: [1] > 100 µM | [2] 40.3 µM | [3] > 100 µM | [4] 55 µM | [5] > 100 µM | [6] > 100 µM | [7] > 100 µM | [8] > 100 µM | [9] 66.1 µM | [10] > 100 µM | [11] > 100 µM | [12] 79.3 µM | [13] > 100 µM | [14] > 100 µM | [15] > 100 µM | [16] > 100 µM

CCOC(=O)NC(=O)c1cn(CCCOC(=O)CCCCCCCCCCC(=O)OCCCn2cc(C(=O)NC(=O)OCC)c(=O)n(C)c2=O)c(=O)n(C)c1=O
inactive: [1] > 100 µM | [2] > 100 µM | [3] > 100 µM | [17] > 100 µM | [4] 47.9 µM | [5] > 100 µM | [6] > 100 µM | [7] > 100 µM | [8] > 100 µM | [9] > 100 µM | [10] > 100 µM | [18] > 100 µM | [11] > 100 µM | [12] > 100 µM | [13] 67.8 µM | [14] > 100 µM | [15] > 100 µM | [16] > 100 µM

N#CC(/C(CCCC(=O)Nc1cccc([N+](=O)[O-])c1)=N/NC(=O)c1cc2ccccc2cc1O)c1ccccc1 (stereo unspecified)
inactive: [1] 24.2 µM | [2] 5.07 µM | [3] 6.56 µM | [17] 28 µM | [4] > 100 µM | [5] 47.3 µM | [6] 27.2 µM | [7] 35.6 µM | [8] 27.4 µM | [9] 26.8 µM | [10] 23.6 µM | [18] 60.7 µM | [11] 61.8 µM | [12] 17.7 µM | [13] 29.8 µM | [14] 34.6 µM | [15] 15.8 µM

COc1cc2c(cc1OC)C(C(CBr)CBr)N(C1CCCC1)CC2 (stereo unspecified)
inactive: [1] > 100 µM | [2] > 100 µM | [3] > 100 µM | [17] > 100 µM | [4] > 100 µM | [5] > 100 µM | [6] > 100 µM | [8] > 100 µM | [9] > 100 µM | [10] > 100 µM | [18] > 100 µM | [11] > 100 µM | [12] > 100 µM | [13] 41.3 µM | [14] > 100 µM | [15] > 100 µM | [16] > 100 µM

C[N+](C)(C)CC1CCCCC1O (stereo unspecified)
inactive: [1] > 100 µM | [2] > 100 µM | [3] > 100 µM | [17] > 100 µM | [4] > 100 µM | [6] > 100 µM | [7] > 100 µM | [8] > 100 µM | [9] > 100 µM | [10] > 100 µM | [18] > 100 µM | [11] > 100 µM | [13] > 100 µM | [14] > 100 µM | [15] > 100 µM | [16] > 100 µM

CCCC(C)NC1=C(NC(C)=O)C(=O)c2ccccc2C1=O (stereo unspecified)
inactive: [1] > 100 µM | [2] > 100 µM | [3] > 100 µM | [4] > 100 µM | [5] > 100 µM | [6] > 100 µM | [7] > 100 µM | [8] > 100 µM | [9] > 100 µM | [10] > 100 µM | [18] > 100 µM | [11] > 100 µM | [12] > 100 µM | [13] 47.9 µM | [14] > 100 µM | [15] > 100 µM | [16] > 100 µM
